System: peripheral whole blood
Assay: Differential gene expression analyses (microarray) in atopic dermatitis patients
Type: in vivo, human
Protocol: As an exploratory end point to potentially identify immune pathways affected by apremilast, peripheral whole blood was obtained for differential gene expression analyses at baseline and after 3 (cohort 1) and 6 (cohort 2) months of treatment to determine apremilast's potential mechanism of action in patients with atopic dermatitis. RNA isolation and microarray analyses were performed in the Oregon Health and Science University Gene Microarray Shared Resource. Total RNA was isolated from PAXGene tubes using the PAXGene Blood RNA Isolation kit (QIAGEN Inc). RNA quantity was measured by spectrophotometric analysis; RNA quality was evaluated by size analysis on the Bioanalyzer 2100 (Agilent Technologies Inc). All samples passed RNA quality assessment review.
RNA samples were labeled using the OvationWTAPico Amplification and Labeling System (NuGEN Technologies Inc). Fifty nanograms of each sample were amplified with the Ovation WTA Pico kit, converted to sense complementary DNA (cDNA) with the WT-Ovation Exon Module, version 1, kit, and labeled with the Encore Biotin Module kit. Hybridization and array processing were performed as described in the NuGEN Encore Biotin Module User Guide http://www.nugeninc.com/tasks/sites/nugen/assets/File/user_guides/userguide_encore_biotin.pdf). Two micrograms of each labeled cDNA target werehybridized with the GeneChip Human Gene 1.0 ST array (Affymetrix) and scanned on the Affymetrix GeneChip 3000 Scanner. The array image was processed with Affymetrix Command Console (version 3.1.1). Data were normalized using the robust multichip average method.
Differential expression analyses were performed on 16 paired samples. All putatively differentially expressed genes were based on false discovery rate-adjusted P values<0.05. Based on the putative differentially expressed gene list, both enriched pathways and functional gene ontologic characteristics were identified (P<0.05 for hypergeometric test) in the GoStats package within the Bioconductor statistical programming environment (http://www.bioconductor.org).

[1] = cohort 1, 20 mg twice a day, baseline vs 3 months

CCOc1cc([C@@H](CS(C)(=O)=O)N2C(=O)c3cccc(NC(C)=O)c3C2=O)ccc1OC [apremilast, (+)-2-[1-(3-ethoxy-4-methoxyphenyl)-2-methylsulfonylethyl]-4-acetylaminoisoindoline-1,3-dione]
significant differential expression: BAD (bcl-2 antagonist of cell death) phosphorylation pathway gene expression [1] | IL-12 signaling (gene ontologic analysis) [1] | cAMP response element binding (CREB) pathway gene expression [1] | chemokine-mediated signaling (gene ontologic analysis) [1] | cytoskeleton remodeling (gene ontologic analysis) [1] | regulation of immune complex clearing by monocytes and macrophages (gene ontologic analysis) [1] | CCR3 signaling in eosinophils gene expression (cohort 2, 30 mg twice a day, baseline vs 6 months)
